Activity calls are given as the source filed them. The calls are words filed in the database; no cut-off is given here.
Legend:
[1] = target: T1, Protein cereblon/Cyclic GMP-AMP synthase (Homo sapiens, UniProt Q96SW2+Q8N884); experiment: PROTAC activity at CRBN/cGAS in human THP-1 cells assessed as induction of cGAS degradation at 10 uM by Western blot analysis; type: cell-based; details: time 1-24 hrs
[2] = target: T1, Protein cereblon/Cyclic GMP-AMP synthase; experiment: PROTAC activity at CRBN/cGAS in human THP-1 cells assessed as induction of cGAS degradation at 10 uM preincubated with lenalidomide for 2 hrs followed by compound addition and measured after 48 hrs by Western blot analysis; type: cell-based
[3] = target: Cyclic GMP-AMP synthase (Homo sapiens) (UniProt Q8N884); experiment: Inhibition of cGAMP-induced cGAS signaling pathway in human THP1-Lucia ISG cells at 0.2 to 20 uM preincubated with compound for 2 hrs followed by cGAMP addition and measured after 24 hrs by QUANTI-Luc luciferase reagent based assay; type: cell-based; details: dose 0.2-20 µM, time 26.0 hrs
Chain of Cyclic GMP-AMP synthase (Homo sapiens) (Q8N884 whole entry): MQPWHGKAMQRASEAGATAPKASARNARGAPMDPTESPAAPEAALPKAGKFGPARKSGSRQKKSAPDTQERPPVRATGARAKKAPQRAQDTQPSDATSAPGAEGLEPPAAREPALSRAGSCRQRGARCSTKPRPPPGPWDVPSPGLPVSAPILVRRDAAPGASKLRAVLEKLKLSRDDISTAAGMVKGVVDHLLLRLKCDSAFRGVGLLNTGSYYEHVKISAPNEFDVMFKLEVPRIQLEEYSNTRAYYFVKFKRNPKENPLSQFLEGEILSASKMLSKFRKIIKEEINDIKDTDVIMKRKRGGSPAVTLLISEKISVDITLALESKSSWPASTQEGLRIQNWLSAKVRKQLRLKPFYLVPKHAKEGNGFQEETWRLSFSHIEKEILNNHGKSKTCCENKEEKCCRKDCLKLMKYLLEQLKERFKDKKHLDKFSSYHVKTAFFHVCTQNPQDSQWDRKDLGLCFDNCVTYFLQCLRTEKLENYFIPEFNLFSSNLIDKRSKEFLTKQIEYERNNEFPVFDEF

RAW264.7 = experiment: Downregulation of IFNB mRNA expression in mouse RAW264.7 cells preincubated with compound for 40 hrs followed by HT-DNA addition and measured after 8 hrs by qRT-PCR analysis; type: functional, cell-based; details: dose 2.5-20 µM, time 48.0 hrs
THP-1 [4] = experiment: Downregulation of IFNB mRNA expression level in ISD-induced human THP-1 cells at 20 uM preincubated with compound for 12 hrs followed by 45-bp immune stimulatory DNA addition and measured after 8 hrs by RT-qPCR analysis; type: functional, cell-based; details: time 20.0 hrs
THP-1 [5] = experiment: Downregulation of IFNB mRNA expression level in HT-DNA-induced human THP-1 cells at 20 uM preincubated with compound for 12 hrs followed by HT-DNA addition and measured after 8 hrs by RT-qPCR analysis; type: functional, cell-based; details: time 20.0 hrs
THP-1 [6] = experiment: Downregulation of IFNB mRNA expression level in cGAMP-induced human THP-1 cells at 20 uM preincubated with compound for 12 hrs followed by cGAMP addition and measured after 8 hrs by RT-qPCR analysis; type: functional, cell-based; details: time 20.0 hrs
[7] = Volume of distribution in male C57BL/6 mouse at 1 mg/kg, iv measured after 24 hrs by LC-MS/MS analysis; type: ADME, organism-based; details: in vivo
[8] = target: T2, Protein cereblon/Cyclic GMP-AMP synthase (Mus musculus) (UniProt Q8C6L5+Q8C7D2); experiment: (§1) In vivo inhibition of cGAS signaling pathway in DSS-induced ulcerative colitis C57BL/6 mouse model assessed as reduction in STING phosphorylation level in colon preadministered with DSS for 7 days followed by replacement with ultrapure water for 3 days with subsequent intraperitoneal compound administration starting from day 4 to 10 and measured on day 11 by Western blot analysis; type: functional, organism-based; details: dose 20-50 mg/kg/day, route ip, time 8.0 day
T2 sequence (Q8C6L5 whole entry, looked up): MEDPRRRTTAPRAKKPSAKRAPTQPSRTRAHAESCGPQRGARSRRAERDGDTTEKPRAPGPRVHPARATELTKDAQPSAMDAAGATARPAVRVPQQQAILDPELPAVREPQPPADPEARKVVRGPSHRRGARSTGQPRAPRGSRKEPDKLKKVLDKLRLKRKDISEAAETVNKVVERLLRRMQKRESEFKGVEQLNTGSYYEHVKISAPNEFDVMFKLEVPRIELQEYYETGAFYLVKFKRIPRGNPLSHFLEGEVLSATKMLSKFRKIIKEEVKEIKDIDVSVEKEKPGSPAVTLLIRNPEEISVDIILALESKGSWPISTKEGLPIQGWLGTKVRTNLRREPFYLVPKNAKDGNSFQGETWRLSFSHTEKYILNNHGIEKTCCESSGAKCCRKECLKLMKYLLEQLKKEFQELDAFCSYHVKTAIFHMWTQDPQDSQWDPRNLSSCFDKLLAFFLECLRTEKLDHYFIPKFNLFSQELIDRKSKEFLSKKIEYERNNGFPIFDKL
T2 sequence (Q8C7D2 whole entry, looked up): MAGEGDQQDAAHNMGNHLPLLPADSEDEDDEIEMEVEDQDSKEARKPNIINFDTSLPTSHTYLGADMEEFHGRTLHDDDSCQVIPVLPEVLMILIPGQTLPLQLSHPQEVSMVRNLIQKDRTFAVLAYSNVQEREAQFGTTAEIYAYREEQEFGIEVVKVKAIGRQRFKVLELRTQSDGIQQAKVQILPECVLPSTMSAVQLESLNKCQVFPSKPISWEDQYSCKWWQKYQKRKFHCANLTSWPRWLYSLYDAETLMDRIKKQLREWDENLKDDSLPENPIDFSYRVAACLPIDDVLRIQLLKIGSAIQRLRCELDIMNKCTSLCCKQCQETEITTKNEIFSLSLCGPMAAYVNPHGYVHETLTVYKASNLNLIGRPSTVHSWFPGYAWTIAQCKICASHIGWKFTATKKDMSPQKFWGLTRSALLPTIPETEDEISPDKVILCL

[9] = target: T2, Protein cereblon/Cyclic GMP-AMP synthase (Mus musculus); experiment: as §1, with “TBK1” for “STING”; type: functional, organism-based; details: dose 20-50 mg/kg/day, route ip, time 8.0 day

T1 sequence (Q8N884 whole entry, looked up): as the sequence (Q8N884 whole entry) above
T1 sequence (Q96SW2 whole entry, looked up): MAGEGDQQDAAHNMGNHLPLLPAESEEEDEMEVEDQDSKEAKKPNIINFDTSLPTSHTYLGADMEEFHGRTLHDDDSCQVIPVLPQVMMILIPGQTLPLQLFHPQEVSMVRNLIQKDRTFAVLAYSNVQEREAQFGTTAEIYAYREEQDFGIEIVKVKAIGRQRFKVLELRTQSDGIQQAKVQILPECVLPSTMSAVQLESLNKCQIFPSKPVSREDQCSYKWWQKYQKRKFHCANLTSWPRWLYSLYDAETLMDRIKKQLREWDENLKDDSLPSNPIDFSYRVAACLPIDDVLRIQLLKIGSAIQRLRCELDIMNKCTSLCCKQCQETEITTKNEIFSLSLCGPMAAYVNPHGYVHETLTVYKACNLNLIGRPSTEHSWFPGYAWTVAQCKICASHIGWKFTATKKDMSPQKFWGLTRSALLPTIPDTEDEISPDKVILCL

Activity [1]: Time-dependent-effect | Activity [2]: inactive | inhibition [3]: inactive | Vd [7]: 8.1 L/kg
SMILES: Cn1ccc(-c2cc(Cl)c(Cl)c3[nH]c4c(c23)CN(C(=O)CNC(=O)CCCC#Cc2cccc3c2CN(C2CCC(=O)NC2=O)C3=O)CC4)n1 (stereo not given)
Activity (RAW264.7): Dose-dependent-effect | Activity (THP-1 [4]): Active | Activity (THP-1 [5]): Active | Activity (THP-1 [6]): inactive | inhibition [8]: Dose-dependent-effect | inhibition [9]: Dose-dependent-effect
